Experimental data: ChEMBL document CHEMBL5579824, “Novel Hsp90-Targeting PROTACs: Enhanced synergy with cisplatin in combination therapy of cervical cancer” (Eur J Med Chem, 2024)
Activity calls are given as the source filed them. The rule behind the calls is not given here.

Legend:
[1] = test system: SiHa; assay: Synergistic antiproliferative activity against human SiHa cells assessed as combination index at 0.1 uM incubated for 72 hrs in presence of 0.32 uM cisplatin by CCK-8 assay; assay type: functional
[2] = test system: SiHa; assay: Induction of apoptosis in human SiHa cells assessed as necrotic cells at 1 uM incubated after 48 hrs by annexin V-FITC/PI staining based flow cytometry (reference value: 0.08 %); assay type: functional
[3] = molecular target: T1, Protein cereblon/Heat shock protein HSP 90-alpha/Heat shock protein HSP 90-beta (Homo sapiens) (UniProt P07900+P08238+Q96SW2); assay: Protac activity at CRBN/Hsp90 in human SiHa cells assessed as decrease in mTOR protein expression level at 0.01 to 1 uM incubated for 10 hrs by Western blot analysis; assay type: cell-based; details: dose 0.01-1 µM
[4] = test system: SiHa; assay: Induction of cell cycle arrest in human SiHa cells assessed as accumulation of cells at G1 pahse at 2.5 uM incubated after 48 hrs by PI staining based flow cytometry (reference value: 83.90 %); assay type: functional
[5] = test system: SiHa; assay: Synergistic antiproliferative activity against human SiHa cells assessed as combination index at 10 uM incubated for 72 hrs in presence of 0.32 uM cisplatin by CCK-8 assay; assay type: functional
[6] = test system: SiHa; assay: Synergistic antiproliferative activity against human SiHa cells assessed as combination index at 10 uM incubated for 72 hrs in presence of 0.01 uM cisplatin by CCK-8 assay; assay type: functional
[7] = test system: SiHa; assay: Induction of apoptosis in human SiHa cells assessed as late apoptotic cells at 2.5 uM incubated after 48 hrs by annexin V-FITC/PI staining based flow cytometry (reference value: 6.93 %); assay type: functional
[8] = test system: SiHa; assay: Induction of cell cycle arrest in human SiHa cells assessed as accumulation of cells at G2/M pahse at 2.5 uM incubated after 48 hrs by PI staining based flow cytometry (reference value: 7.37 %); assay type: functional
[9] = test system: SiHa; assay: Synergistic antiproliferative activity against human SiHa cells assessed as combination index at 5 uM incubated for 72 hrs in presence of 10 uM cisplatin by CCK-8 assay; assay type: functional
[10] = molecular target: T1, Protein cereblon/Heat shock protein HSP 90-alpha/Heat shock protein HSP 90-beta (Homo sapiens); assay: Protac activity at CRBN/Hsp90 in human Ca-Ski cells assessed as induction of Hsp90 degradation at 0.05 uM incubated for 10 hrs by Western blot analysis; assay type: cell-based

`CC1(C)CC(=O)c2c(C(F)(F)F)nn(-c3ccc(C(N)=O)c(N[C@H]4CC[C@H](OC(=O)CNC(=O)CCCCCCCNc5cccc6c5CN(C5CCC(=O)NC5=O)C6=O)CC4)c3)c2C1` (stereo not given in full) was tested, and the CI [1] was 0.45, the Activity [2] was 0.29% and the Activity [3] was “inactive”. It also gave an Activity [4] of 53.29%, a CI [5] of 1.89 and a CI [6] of 2.19. It also gave an Activity [7] of 22.71%, an Activity [8] of 25.47% and a CI [9] of 0.51. The Activity [10] was “Active”.
